In PubChem BioAssay AID179 (DTP/NCI, 2004) one finds EC50, IC50 and outcome data, which are given here for 71 compounds.

This assay deals with CEM cells HIV-1 protection, formazan growth assay. The experiment in a line: NCI AIDS Antiviral Assay. Conditions: for IC50: measured here: growth of uninfected CEM cells. The procedure: The ability of compounds to protect human CEM cells from HIV-1 infection is measured as a screen for new compounds capable of inhibiting the HIV virus. Five concentrations of drug were tested on uninfected and infected cells and cell growth was measured using a soluble formazan assay. […] Compounds that provided at least 50% protection were retested. Compounds that provided at least 50% protection on retest were listed as moderately active. Compounds that reproducibly provided 100% protection were listed as confirmed active. […] Note that the inability to provide protection could be due to toxicity.

Activity calls are given as the source filed them.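 The calls were made as follows: active = compounds giving half or more protection of infected cells from virus-caused growth loss, again on retest; inactive = the rest.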

Broadly, the EC50 is the concentration that produces a half-maximal response. In general, IC50 refers to the point on the concentration scale where inhibition reaches its midpoint. A high value points to lower potency. Consider `NC(CSS(=O)(=O)O)=NCCCOCc1ccccc1`, for which the EC50 is over 200 µM and the IC50 stood at 112 µM.
Regarding `C/C(N=NS(=O)(=O)c1ccc(C)cc1)=C1\C=CC=CN1O`, the outcome was inactive.
`Cn1c(=O)sc2cc(C(=S)N3CCN(c4ccccc4)CC3)ccc21`: the EC50 is 87.1 µM and the IC50 was determined as 107 µM.
`C1=Nc2ccccc2N=Cc2ccccc2NCCNc2ccccc21`: the EC50 is over 200 µM and the IC50 was over 200 µM.
Turning to `Cc1cccc(N=NC2Sc3nc4ccccc4n3C2=O)c1` (configuration not stated), the EC50 was over 200 µM and the IC50 is over 200 µM.
For the compound `COC(=O)CCCC=C(c1cc(C)c(OC)c(Br)c1)c1cc(C)c(OC)c(Br)c1`, the EC50 is over 200 µM and the IC50 worked out at 39.8 µM.
In the case of `CC(=O)N(C(C)=O)c1c(C)cc(-c2cccs2)oc1=O`, the EC50 is over 200 µM and the IC50 is over 100 µM.
With `CC1(C)OC(=O)C=C[C@@]2(C)C1CC(=O)C1(C)C2CCC2(C)C(c3ccoc3)OC(=O)[C@H]3O[C@]321` (some centres not stated), the EC50 was over 200 µM and the IC50 is over 200 µM.
`O=C1C(=O)N(c2ccc(Cl)cc2)C(=O)C(=O)C1c1nc2ccccc2o1`: the outcome was inactive.
As to `CC1C(c2ccc3c(c2)OCO3)c2cc3c(cc2OC1N1CCCCC1)OCO3` (configuration not stated), the EC50 is over 200 µM and the IC50 stood at 33.9 µM.
For `Nc1ncnc2c1ccn2C/C=C/CO` the same measures were over 200 µM and over 200 µM.
For `N#Cc1cc([N+](=O)[O-])ccc1NC(=O)/C(=N\NC(=O)c1ccncc1)C(c1cnc2ccc([N+](=O)[O-])cc2n1)[N+](=O)[O-]` (configuration not stated) the same measures were over 45.7 µM and 8.71 µM.
As for `CCOC(=O)CC(=O)ON(C)C(C)=O`, the EC50 is over 251 µM and the IC50 is over 251 µM.
Take `Cc1c(C(c2[nH]c3ccccc3c2C)c2[nH]c3ccccc3c2C)[nH]c2ccccc12`: the EC50 is 0.0631 µM and the IC50 is 13.5 µM.
Consider `COC(=O)c1cc(=O)n(Cc2ccco2)c(=Nc2ccccc2)s1`, for which the EC50 is over 100 µM and the IC50 was 13.8 µM.
For `c1ccc(Cn2c(-c3ccc(-c4ccccc4)cc3)cc3ccccc32)cc1` the same measures were over 100 µM and over 100 µM.
For `O=C(Nc1ccc(N=Nc2ccc(S(=O)(=O)O)cc2)cc1)c1ccc(N=Nc2ccc3c(S(=O)(=O)O)cccc3c2O)cc1` the same measures were 30.9 µM and 195 µM.
For `COC1/C=C/OC2(C)Oc3c(C)c(O)c4c(O)c(c(/C=N/n5cnc6c(ncn6C6OC(CO)C(O)C6O)c5=O)c(O)c4c3C2=O)NC(=O)/C(C)=C\C=C\C(C)C(O)C(C)C(O)C(C)C(OC(C)=O)C1C` (configuration not stated) the same measures were over 200 µM and 66.1 µM.
`COC(OC)(c1ccccc1)C(Br)Br`: the outcome was inactive.
Turning to `CCCCN(CCCC)C(=S)SSC(=S)N(CCCC)CCCC`, the EC50 was over 200 µM and the IC50 is 5.25 µM.
As to `Cn1cc(C(N)=O)ccc1=N`, the EC50 was over 200 µM and the IC50 is over 200 µM.
`O=C1OCCOCCOC(=O)c2cccc(n2)C(=O)OCCOCCOC(=O)c2cccc1n2`: the EC50 was over 525 µM and the IC50 was over 525 µM.
Consider `OC(Cc1ccc2ccccc2n1)(C(F)(F)Cl)C(F)(F)Cl`, for which the EC50 is over 200 µM and the IC50 was determined as 81.3 µM.
For `NC1CC(=O)c2c(I)sc(I)c21` (configuration not stated) the same measures were over 200 µM and 4.47 µM.
`NC(N)=NCCCS(=O)(=O)Nc1ccc(Nc2c3ccccc3nc3cc([N+](=O)[O-])ccc23)cc1`: the outcome was inactive.
With `CCCCS/C(=C(/C#N)C(N)=O)c1cc2c([nH]1)CCCC2`, the result was inactive.
Still for that read-out and setting: with `NC(=O)C(NN=C(c1ccccc1)c1ccccc1)c1ccccc1` (configuration not stated) the entry was “inactive”.
For `Cc1c(C(=O)C/C(=N/NC(=O)c2ccccc2O)C(=O)Nc2ccccc2C(C)C)[n+](=O)c2ccccc2n1[O-]`, the EC50 was over 6.92 µM and the IC50 is over 6.92 µM.
Consider `Cc1ccc(C(=O)N2CCCCC2)cc1N=NN(C)C`, for which the EC50 was over 263 µM and the IC50 stood at 240 µM.
`CN1CC(C(=O)NC2(C)OC3(O)C4CCCN4C(=O)C(Cc4ccccc4)N3C2=O)C=C2c3cccc4[nH]cc(c34)CC21` (configuration not stated): the EC50 was over 61.7 µM and the IC50 came to 28.8 µM.
For `CCOC(=O)/C(=C\c1cccc(Br)c1)C(C)=O` the same measures were over 229 µM and 47.9 µM.
With `COc1cccc(C2c3cc4c(cc3OC(O)C2C)OCO4)c1OC` (configuration not stated), the EC50 was over 200 µM and the IC50 stood at 1.51 µM.
For `O=C1OC[C@@H]2[C@@H](O)CCCCCN12` the same measures were over 200 µM and over 200 µM.
For `CC(=O)Nc1ccc(-c2nnc(SCC(=O)Nc3ccccc3[N+](=O)[O-])o2)cc1` the same measures were over 24 µM and over 24 µM.
For `C=C1C(=O)OC2CC(C)C3CC(OC)OC(OC)C3(C)CC12` (configuration not stated) the same measures were over 589 µM and 3.72 µM.
Consider `CCC12CCC3CCCCC3(OO1)[C@@H](OC)O2` (some centres not stated), for which the EC50 was over 51.3 µM and the IC50 is over 51.3 µM.
Turning to `CC(=O)CC1CCC(=O)CCC(=O)OC(CC(C)=O)CCC(=O)CCC(=O)O1` (configuration not stated), the EC50 is 170 µM and the IC50 is over 200 µM.
For `CCC(CS(=O)(=O)O)[N+](=O)[O-]` (configuration not stated) the same measures were over 200 µM and over 200 µM.
For `COc1ccc2c(c1OC)C(=O)N1C2=Cc2c(cc3c(c2OC)OCO3)CC1N(C)C` (configuration not stated) the same measures were over 200 µM and 26.9 µM.
For `O=[As](O)(O)c1ccc(-c2ccc([As](=O)(O)O)cc2)cc1` the same measures were over 200 µM and over 200 µM.
With `COc1c2occc2cc2ccc(=O)oc12`, the EC50 is over 83.2 µM and the IC50 is over 83.2 µM.
`COc1ccc(-c2nnc(-c3nsc4ccccc34)o2)cc1`: the EC50 is over 17 µM and the IC50 was over 17 µM.
In the case of `Clc1ccc(C2=NCON=C2c2ccc(Cl)cc2)cc1`, the outcome was inactive.
On to `COC(=O)C(/C(=N\NC(N)=S)C(=O)Nc1ccccc1[N+](=O)[O-])c1cnc2ccccc2n1` (configuration not stated), for which the EC50 was over 145 µM and the IC50 is over 145 µM.
In the case of `COc1ccc2cc3c4cc(OC)c(OC)cc4ccn3c2c1`, the EC50 is over 23.4 µM and the IC50 came out at 22.9 µM.
For `O=S1OCC2(CO1)COS(=O)OC2` (configuration not stated) the same measures were over 200 µM and 91.2 µM.
For `Nc1nc(Cl)cc2nsnc12` the same measures were over 28.2 µM and over 28.2 µM.
With `Cc1ccnc2c1C(=O)C(=O)C=C2N1CCOCC1`, the outcome was inactive.
Take `CC1(C)C(=O)N2C(=O)CC(=O)N2C1=O`: the EC50 was over 457 µM and the IC50 is over 457 µM.
On to `Nc1nc2n(nc[n+]2CCP(=O)(O)O)c(=O)[nH]1`, for which the result was inactive.
Turning to `CC(=O)C(=Cc1ccc(Cl)cc1)C(C)=O`, the EC50 is over 427 µM and the IC50 is 19.5 µM.
For `O=C1CSC(c2ccccc2)N1c1ccc(-c2ccc(-n3c(-c4ccccc4)nc4ccccc4c3=O)cc2)cc1` (configuration not stated) the same measures were over 200 µM and 44.7 µM.
For `COc1ccc(N=C2[Se]C(=NC(=O)c3ccccc3)N(c3ccc(OC)cc3)C2=Nc2ccc(OC)cc2)cc1` the same measures were over 200 µM and 102 µM.
For `CC(=O)c1cc2c3c(c1)C(=O)CCN3CCC2=O`, the outcome was inactive.
In the case of `O=C(Nc1cc2c(oc1=O)CCCCCC2)c1cnccn1`, the EC50 is over 50.1 µM and the IC50 is over 50.1 µM.
As for `O=[N+]([O-])C(/C=N/Nc1ccccc1)/C=N/Nc1ccccc1`, the EC50 was over 24.5 µM and the IC50 was over 24.5 µM.
`CC(=O)N1C(c2[nH]c3ccccc3c2Cc2ccccc2)CCN1c1ccccc1` (configuration not stated): the EC50 is over 200 µM and the IC50 was found to be 102 µM.
As to `COc1cc(C2C(Cl)C(=O)N2NC(=O)c2ccccc2O)ccc1O` (configuration not stated), the EC50 is over 27.5 µM and the IC50 is over 27.5 µM.
Take `CCOC(=O)N1[C@@H]2CCC[C@@H]2C(=O)[C@@H]2CCC[C@@H]21`: the EC50 was over 200 µM and the IC50 was over 200 µM.
Consider `CC1CCCN(CC(O)CN2CCN(CC(O)CN3CCCC(C)C3)C(C)C2)C1` (configuration not stated), for which the EC50 is over 316 µM and the IC50 was over 316 µM.
For `Cn1cnc(N2CCCC2)c(C#N)c1=S`, the EC50 was over 200 µM and the IC50 is over 200 µM.
Take `CNC(=O)OCc1c(COC(=O)NC)c2n(c1C)-c1ccc(OC)cc1CCC2`: the EC50 is over 123 µM and the IC50 came out at 2.14 µM.
For `COC1/C=C/OC2(C)Oc3c(C)c(O)c4c(O)c(c(/C=N/N5C(C)CN(Cc6ccccc6C#N)CC5C)c(O)c4c3C2=O)NC(=O)/C(C)=C\C=C\C(C)C(O)C(C)C(O)C(C)C(OC(C)=O)C1C` (configuration not stated) the same measures were over 200 µM and 7.41 µM.
For `COc1ccc2c(c1)C(=O)N1CSCC1C(=O)S2` (configuration not stated), the EC50 was over 200 µM and the 50% inhibitory concentration (IC50) is over 200 µM.
For `O=C1C=C2C(=NC34CCCCC3C(c3ccccc3)C3=C(c5ccccc5CC3)N24)c2ccccc21` (configuration not stated), the EC50 is 186 µM and the IC50 was over 200 µM.
For `C[N+](C)(C)CC1CCCC/C1=N\O` (configuration not stated) the same measures were over 794 µM and over 794 µM.
For `C=C1c2nc3ccccc3n2C=C(c2ccc(OC)cc2)N1c1ccccc1` the same measures were over 200 µM and 3.8 µM.
For `CC(C)=CCC[C@@H](C)c1c(O)c(O)c(C)c2nccnc12` the same measures were over 200 µM and 38 µM.
Regarding `Nc1nc(Cl)cc(NCC2(CO)CC(CCc3ccccc3)C2)n1` (configuration not stated), the EC50 is over 20 µM and the IC50 was determined as 14.8 µM.
For `Cc1ccc2c(c1)C1(c3ccc(Cl)cc3)Oc3ccc(C)cc3C(c3ccc(Cl)cc3)(O2)O1`, the EC50 is over 75.9 µM and the IC50 is over 75.9 µM.
Take `O=C(n1c(=O)n(-c2ccc([N+](=O)[O-])cc2)c(=O)n1C(=O)C(Cl)(Cl)Cl)C(Cl)(Cl)Cl`: the EC50 is over 200 µM and the IC50 is over 200 µM.
